{"source": "patent US11134889B2", "about": "“Treatment of a disease of the gastrointestinal tract with a SMAD7 inhibitor” (Progenity, Inc., priority 2016, dated 2021)", "assay": "Tacrolimus tissue pharmacokinetics, oral vs intra-cecal ingestible device delivery", "format": "in vivo, Yorkshire-Cross farm swine", "settings": "swine; intra-cecal as compared to oral administration, 12 hours post-dose", "method": "The primary objective of this study was to compare the tissue, plasma, rectal sample, and GI content pharmacokinetics of tacrolimus through oral versus intra-cecal ingestible device delivery in normal Yorkshire-Cross farm swine.\nNo further randomization procedure was employed.\nAnimals in Group 1 received an ingestible device containing 0.8 mL of vehicle solution (80% alcohol, 20% HCO-60). Animals in Group 2 received orally […] liquid formulation of tacrolimus at 4 mg/0.8 mL per animal (Prograf: 5 mg/mL). Animals in Group 3 received intra-cecally an ingestible device containing tacrolimus at 1 mg in 0.8 mL per ingestible device. […]\nApproximately 200˜400 mg of rectal content were collected, if available, with a fecal swab (Copan Diagnostics Nylon Flocked Dry Swabs, 502CS01). The fecal swab was pre-weighed and weighed after collection in the collection tube (Sterile Tube and Cap No Media, PFPM913S), and the sample weight was recorded. […]\nFor tissue necropsy, small intestine fluid and cecal fluid were collected separately from all the animals into two separate square plastic bottles, and stored at −20° C. The length and diameter of the cecum and the colon was measured from one animal in each group and recorded for reference. […] All samples were weighed, and the tissue sample weights were recorded. […]"}
{"smiles": "C=CC[C@@H]1/C=C(\\C)C[C@H](C)C[C@H](OC)[C@H]2O[C@@](O)(C(=O)C(=O)N3CCCC[C@H]3C(=O)O[C@H](/C(C)=C/[C@@H]3CC[C@@H](O)[C@H](OC)C3)[C@H](C)[C@@H](O)CC1=O)[C@H](C)C[C@@H]2OC", "note": "[tacrolimus]", "values": [{"measurement": "mean concentration in the cecum tissue and the proximate colon tissue (FIG. 76)", "result": "higher"}]}
